# Test: Phase I clinical trial: treatment-emergent adverse events (patients, n (%)), dose limiting toxicity, MTD
# Assay type: in vivo
# Method: Safety, maximum tolerated dose (MTD), pharmacokinetics (PK) and preliminary antitumor activity were evaluated.
# Pharmacodynamic (PD) endpoints were evaluated in surrogate (peripheral blood cells [PBCs], skin) and tumor tissues for the phosphorylation of TORC1-dependent markers (4EBP1/S6), and TORC2-dependent markers (AKT/PRAS40).
smiles,measurement,setting,value
CC(C)n1nc(-c2ccc3oc(N)nc3c2)c2c(N)ncnc21 [compound A],Dose limiting toxicities,"40 mg QW, 20 mg QDx3d QW and 13 mg QDxSd QW cohorts",Grade (G) 3 asthenia and G3 mucositis
same,adverse events (AEs) reported: reversibility,3 intermittent dosing regimens,reversible
same,"lymphopenia, only reported Grade 3 or higher AE possibly related",3 regimens,6%
same,Grade 3 or greater TEAE: Abdominal pain upper,QD Dosing (N = 25),1 (4%)
same,Grade 3 or greater TEAE: Anaemia,QD Dosing (N = 25),1 (4%)
same,Grade 3 or greater TEAE: Aspartate aminotransferase increased,QD Dosing (N = 25),0 (0%)
same,Grade 3 or greater TEAE: Asthenia,QD Dosing (N = 25),0 (0%)
same,Grade 3 or greater TEAE: Catheter related infection,QD Dosing (N = 25),1 (4%)
same,Grade 3 or greater TEAE: Cellulitis,QD Dosing (N = 25),1 (4%)
same,Grade 3 or greater TEAE: Diarrhoea,QD Dosing (N = 25),1 (4%)
same,Grade 3 or greater TEAE: Disease progression,QD Dosing (N = 25),0 (0%)
same,Grade 3 or greater TEAE: Enterocutaneous fistula,QD Dosing (N = 25),1 (4%)
same,Grade 3 or greater TEAE: Gamma-glutamyltransferase increased,QD Dosing (N = 25),0 (0%)
same,Grade 3 or greater TEAE: Gastroenteritis,QD Dosing (N = 25),0 (0%)
same,Grade 3 or greater TEAE: Hyperglycaemia,QD Dosing (N = 25),4 (16%)
same,Grade 3 or greater TEAE: Hypokalaemia,QD Dosing (N = 25),2 (8%)
same,Grade 3 or greater TEAE: Hyponatraemia,QD Dosing (N = 25),2 (8%)
same,Grade 3 or greater TEAE: Lymphopenia,QD Dosing (N = 25),2 (8%)
same,Grade 3 or greater TEAE: Pancreatitis acute,QD Dosing (N = 25),1 (4%)
same,Grade 3 or greater TEAE: Pleural effusion,QD Dosing (N = 25),1 (4%)
same,Grade 3 or greater TEAE: Pruritus,QD Dosing (N = 25),2 (8%)
same,Grade 3 or greater TEAE: Rash,QD Dosing (N = 25),7 (28%)
same,Grade 3 or greater TEAE: Rash macular,QD Dosing (N = 25),0 (0%)
same,Grade 3 or greater TEAE: Somnolence,QD Dosing (N = 25),1 (4%)
same,Grade 3 or greater TEAE: Thrombocytopenia,QD Dosing (N = 25),2 (8%)
same,Grade 3 or greater TEAE: Urinary tract infection,QD Dosing (N = 25),0 (0%)
same,Patients Reporting at Least One Grade 3 or Greater TEAE,QD Dosing (N = 25),15 (60%)
same,Grade 3 or greater TEAE: Abdominal pain upper,QDx3d QW (N = 14),0 (0%)
same,Grade 3 or greater TEAE: Anaemia,QDx3d QW (N = 14),0 (0%)
same,Grade 3 or greater TEAE: Aspartate aminotransferase increased,QDx3d QW (N = 14),0 (0%)
same,Grade 3 or greater TEAE: Asthenia,QDx3d QW (N = 14),1 (7%)
same,Grade 3 or greater TEAE: Catheter related infection,QDx3d QW (N = 14),0 (0%)
same,Grade 3 or greater TEAE: Cellulitis,QDx3d QW (N = 14),0 (0%)
same,Grade 3 or greater TEAE: Diarrhoea,QDx3d QW (N = 14),1 (7%)
same,Grade 3 or greater TEAE: Disease progression,QDx3d QW (N = 14),1 (7%)
same,Grade 3 or greater TEAE: Enterocutaneous fistula,QDx3d QW (N = 14),0 (0%)
same,Grade 3 or greater TEAE: Gamma-glutamyltransferase increased,QDx3d QW (N = 14),1 (7%)
same,Grade 3 or greater TEAE: Gastroenteritis,QDx3d QW (N = 14),1 (7%)
same,Grade 3 or greater TEAE: Hyperglycaemia,QDx3d QW (N = 14),1 (7%)
same,Grade 3 or greater TEAE: Hypokalaemia,QDx3d QW (N = 14),0 (0%)
same,Grade 3 or greater TEAE: Hyponatraemia,QDx3d QW (N = 14),0 (0%)
same,Grade 3 or greater TEAE: Lymphopenia,QDx3d QW (N = 14),1 (7%)
same,Grade 3 or greater TEAE: Pancreatitis acute,QDx3d QW (N = 14),0 (0%)
same,Grade 3 or greater TEAE: Pleural effusion,QDx3d QW (N = 14),0 (0%)
same,Grade 3 or greater TEAE: Pruritus,QDx3d QW (N = 14),0 (0%)
same,Grade 3 or greater TEAE: Rash,QDx3d QW (N = 14),0 (0%)
same,Grade 3 or greater TEAE: Rash macular,QDx3d QW (N = 14),1 (7%)
same,Grade 3 or greater TEAE: Somnolence,QDx3d QW (N = 14),0 (0%)
same,Grade 3 or greater TEAE: Thrombocytopenia,QDx3d QW (N = 14),0 (0%)
same,Grade 3 or greater TEAE: Urinary tract infection,QDx3d QW (N = 14),1 (7%)
same,Patients Reporting at Least One Grade 3 or Greater TEAE,QDx3d QW (N = 14),7 (50%)
same,Grade 3 or greater TEAE: Abdominal pain upper,QDx5d QW (N = 6),0 (0%)
same,Grade 3 or greater TEAE: Anaemia,QDx5d QW (N = 6),0 (0%)
same,Grade 3 or greater TEAE: Aspartate aminotransferase increased,QDx5d QW (N = 6),0 (0%)
same,Grade 3 or greater TEAE: Asthenia,QDx5d QW (N = 6),0 (0%)
same,Grade 3 or greater TEAE: Catheter related infection,QDx5d QW (N = 6),0 (0%)
same,Grade 3 or greater TEAE: Cellulitis,QDx5d QW (N = 6),0 (0%)
same,Grade 3 or greater TEAE: Diarrhoea,QDx5d QW (N = 6),0 (0%)
same,Grade 3 or greater TEAE: Disease progression,QDx5d QW (N = 6),0 (0%)
same,Grade 3 or greater TEAE: Enterocutaneous fistula,QDx5d QW (N = 6),0 (0%)
same,Grade 3 or greater TEAE: Gamma-glutamyltransferase increased,QDx5d QW (N = 6),0 (0%)
same,Grade 3 or greater TEAE: Gastroenteritis,QDx5d QW (N = 6),0 (0%)
same,Grade 3 or greater TEAE: Hyperglycaemia,QDx5d QW (N = 6),0 (0%)
same,Grade 3 or greater TEAE: Hypokalaemia,QDx5d QW (N = 6),0 (0%)
same,Grade 3 or greater TEAE: Hyponatraemia,QDx5d QW (N = 6),0 (0%)
same,Grade 3 or greater TEAE: Lymphopenia,QDx5d QW (N = 6),0 (0%)
same,Grade 3 or greater TEAE: Pancreatitis acute,QDx5d QW (N = 6),0 (0%)
same,Grade 3 or greater TEAE: Pleural effusion,QDx5d QW (N = 6),0 (0%)
same,Grade 3 or greater TEAE: Pruritus,QDx5d QW (N = 6),0 (0%)
same,Grade 3 or greater TEAE: Rash,QDx5d QW (N = 6),0 (0%)
same,Grade 3 or greater TEAE: Rash macular,QDx5d QW (N = 6),0 (0%)
same,Grade 3 or greater TEAE: Somnolence,QDx5d QW (N = 6),0 (0%)
same,Grade 3 or greater TEAE: Thrombocytopenia,QDx5d QW (N = 6),0 (0%)
same,Grade 3 or greater TEAE: Urinary tract infection,QDx5d QW (N = 6),0 (0%)
same,Patients Reporting at Least One Grade 3 or Greater TEAE,QDx5d QW (N = 6),0 (0%)
same,Grade 3 or greater TEAE: Abdominal pain upper,QW Dosing (N = 15),0 (0%)
same,Grade 3 or greater TEAE: Anaemia,QW Dosing (N = 15),0 (0%)
same,Grade 3 or greater TEAE: Aspartate aminotransferase increased,QW Dosing (N = 15),1 (7%)
same,Grade 3 or greater TEAE: Asthenia,QW Dosing (N = 15),0 (0%)
same,Grade 3 or greater TEAE: Catheter related infection,QW Dosing (N = 15),0 (0%)
same,Grade 3 or greater TEAE: Cellulitis,QW Dosing (N = 15),0 (0%)
same,Grade 3 or greater TEAE: Diarrhoea,QW Dosing (N = 15),1 (7%)
same,Grade 3 or greater TEAE: Disease progression,QW Dosing (N = 15),0 (0%)
same,Grade 3 or greater TEAE: Enterocutaneous fistula,QW Dosing (N = 15),0 (0%)
same,Grade 3 or greater TEAE: Gamma-glutamyltransferase increased,QW Dosing (N = 15),1 (7%)
same,Grade 3 or greater TEAE: Gastroenteritis,QW Dosing (N = 15),0 (0%)
same,Grade 3 or greater TEAE: Hyperglycaemia,QW Dosing (N = 15),0 (0%)
same,Grade 3 or greater TEAE: Hypokalaemia,QW Dosing (N = 15),0 (0%)
same,Grade 3 or greater TEAE: Hyponatraemia,QW Dosing (N = 15),0 (0%)
same,Grade 3 or greater TEAE: Lymphopenia,QW Dosing (N = 15),1 (7%)
same,Grade 3 or greater TEAE: Pancreatitis acute,QW Dosing (N = 15),0 (0%)
same,Grade 3 or greater TEAE: Pleural effusion,QW Dosing (N = 15),0 (0%)
same,Grade 3 or greater TEAE: Pruritus,QW Dosing (N = 15),0 (0%)
same,Grade 3 or greater TEAE: Rash,QW Dosing (N = 15),0 (0%)
same,Grade 3 or greater TEAE: Rash macular,QW Dosing (N = 15),0 (0%)
same,Grade 3 or greater TEAE: Somnolence,QW Dosing (N = 15),0 (0%)
same,Grade 3 or greater TEAE: Thrombocytopenia,QW Dosing (N = 15),0 (0%)
same,Grade 3 or greater TEAE: Urinary tract infection,QW Dosing (N = 15),0 (0%)
same,Patients Reporting at Least One Grade 3 or Greater TEAE,QW Dosing (N = 15),3 (20%)
same,Catheter site inflammation,Table 8: Total (N = 60),1 (2%)
same,Catheter site pain,Table 8: Total (N = 60),1 (2%)
same,Coagulopathy,Table 8: Total (N = 60),1 (2%)
same,Confusional state,Table 8: Total (N = 60),1 (2%)
same,Cough,Table 8: Total (N = 60),1 (2%)
same,DIARRHEA,Table 8: Total (N = 60),1 (2%)
same,Dizziness,Table 8: Total (N = 60),1 (2%)
same,Dyspnoea exertional,Table 8: Total (N = 60),1 (2%)

# Source: patent publication US9174994B2, “Enhanced treatment regimens using mTor inhibitors” (INTELLIKINE LLC, priority 2011, dated 2015)
